Tests used:
[1] = cited from earlier work
α-thrombin = test: human α-thrombin; settings: 37 °C, up to 4 h

bivalirudin
plasma half-life in vivo [1]: ~30 min

GEPGAPIDYDEYGDSSEEVGGAEVAQPKLYQRGEGGNGMEPIPEDYLQ (the three Y O-sulfated, R1,2,3 = SO3-)
not cleaved (α-thrombin): <10% cleavage after 4 h

From publication PMC12434495 (Chemical Science, 2025)
